Among the data in ChEMBL document CHEMBL3352554, “Synthesis and structure-activity relationships of 4-fluorophenyl-imidazole p38α MAPK, CK1δ and JAK2 kinase inhibitors” (Bioorg Med Chem Lett, 2014) are IC50 and inhibition values, retold here.

As a reminder, the pIC50 is the IC50 on a negative log10 scale, so that one unit is a factor of ten. A higher pIC50 goes with a small IC50.

pIC50: −log10 of the molar value. Active and inactive are the calls of the source. The calls are words filed in the database; no cut-off is given here.

Assay [1] deals with Casein kinase I isoform delta (Homo sapiens, UniProt P48730). In words: Inhibition of CK1-delta (unknown origin) by radiometric assay.
Assay [2] has as its target T1, Tyrosine-protein kinase JAK3 (Homo sapiens, UniProt P52333).
T1 sequence (P52333 whole entry): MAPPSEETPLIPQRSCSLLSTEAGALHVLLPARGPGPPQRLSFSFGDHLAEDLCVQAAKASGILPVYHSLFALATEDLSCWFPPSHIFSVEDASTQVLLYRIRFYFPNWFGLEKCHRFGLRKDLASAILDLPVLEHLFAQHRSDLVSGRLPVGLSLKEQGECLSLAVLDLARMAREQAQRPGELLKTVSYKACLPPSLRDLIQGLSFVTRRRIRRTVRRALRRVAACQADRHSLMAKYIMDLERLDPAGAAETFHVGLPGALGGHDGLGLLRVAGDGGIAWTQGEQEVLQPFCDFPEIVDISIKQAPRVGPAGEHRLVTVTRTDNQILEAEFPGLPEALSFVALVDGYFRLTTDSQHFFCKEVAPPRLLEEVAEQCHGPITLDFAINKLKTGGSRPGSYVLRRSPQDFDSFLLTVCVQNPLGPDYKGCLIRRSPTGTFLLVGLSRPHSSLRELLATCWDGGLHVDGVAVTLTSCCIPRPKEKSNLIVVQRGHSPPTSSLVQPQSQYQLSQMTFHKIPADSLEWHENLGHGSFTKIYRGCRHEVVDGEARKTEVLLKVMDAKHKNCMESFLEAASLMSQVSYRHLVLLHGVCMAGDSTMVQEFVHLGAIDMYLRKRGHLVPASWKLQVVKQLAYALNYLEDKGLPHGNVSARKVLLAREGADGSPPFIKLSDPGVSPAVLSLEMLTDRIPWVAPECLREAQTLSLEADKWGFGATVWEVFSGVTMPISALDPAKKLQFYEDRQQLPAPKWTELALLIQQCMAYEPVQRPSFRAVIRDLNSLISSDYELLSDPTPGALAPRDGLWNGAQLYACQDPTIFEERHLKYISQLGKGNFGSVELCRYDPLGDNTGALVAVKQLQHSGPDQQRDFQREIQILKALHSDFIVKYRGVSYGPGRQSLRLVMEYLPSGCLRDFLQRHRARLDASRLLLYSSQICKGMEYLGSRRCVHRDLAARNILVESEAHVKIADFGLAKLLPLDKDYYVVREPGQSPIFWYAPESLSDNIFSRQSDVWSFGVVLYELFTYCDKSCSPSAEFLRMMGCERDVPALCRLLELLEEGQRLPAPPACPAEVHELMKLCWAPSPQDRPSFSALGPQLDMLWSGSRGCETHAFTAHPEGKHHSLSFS
Put plainly: Inhibition of JAK3 (unknown origin) by radiometric assay.

Assay [3] concerns the target Tyrosine-protein kinase JAK1 (Homo sapiens, UniProt P23458). In words: Inhibition of JAK1 (unknown origin) by radiometric assay.
Assay [4] has as its target T2, Mitogen-activated protein kinase 14 (Homo sapiens, UniProt Q16539). In words: Inhibition of p38alpha MAPK (unknown origin) by radiometric assay.
Assay [5] deals with Tyrosine-protein kinase JAK2 (Homo sapiens, UniProt O60674). Put plainly: Inhibition of JAK2 (unknown origin) by radiometric assay.
The target in assay [6] is T2, Mitogen-activated protein kinase 14. Put plainly: Inhibition of p38alpha MAPK in TNF-alpha-induced HUVEC assessed as downregulation of COX-2 mRNA expression at 10 uM incubated for 4 hrs by RT-PCR analysis. The assay is classed as cell-based.
The target is the same in assay [7]. Put plainly: Inhibition of p38alpha MAPK in TNF-alpha-induced HUVEC assessed as downregulation of IL-6 mRNA expression at 10 uM incubated for 4 hrs by RT-PCR analysis. The assay is classed as cell-based.
For assay [8] the target is unchanged. Put plainly: Inhibition of p38alpha MAPK in TNF-alpha-induced HUVEC assessed as downregulation of VCAM-1 mRNA expression at 10 uM incubated for 4 hrs by RT-PCR analysis. In kind it is cell-based.

Tyrosine-protein kinase JAK1, sequence (P23458 whole entry): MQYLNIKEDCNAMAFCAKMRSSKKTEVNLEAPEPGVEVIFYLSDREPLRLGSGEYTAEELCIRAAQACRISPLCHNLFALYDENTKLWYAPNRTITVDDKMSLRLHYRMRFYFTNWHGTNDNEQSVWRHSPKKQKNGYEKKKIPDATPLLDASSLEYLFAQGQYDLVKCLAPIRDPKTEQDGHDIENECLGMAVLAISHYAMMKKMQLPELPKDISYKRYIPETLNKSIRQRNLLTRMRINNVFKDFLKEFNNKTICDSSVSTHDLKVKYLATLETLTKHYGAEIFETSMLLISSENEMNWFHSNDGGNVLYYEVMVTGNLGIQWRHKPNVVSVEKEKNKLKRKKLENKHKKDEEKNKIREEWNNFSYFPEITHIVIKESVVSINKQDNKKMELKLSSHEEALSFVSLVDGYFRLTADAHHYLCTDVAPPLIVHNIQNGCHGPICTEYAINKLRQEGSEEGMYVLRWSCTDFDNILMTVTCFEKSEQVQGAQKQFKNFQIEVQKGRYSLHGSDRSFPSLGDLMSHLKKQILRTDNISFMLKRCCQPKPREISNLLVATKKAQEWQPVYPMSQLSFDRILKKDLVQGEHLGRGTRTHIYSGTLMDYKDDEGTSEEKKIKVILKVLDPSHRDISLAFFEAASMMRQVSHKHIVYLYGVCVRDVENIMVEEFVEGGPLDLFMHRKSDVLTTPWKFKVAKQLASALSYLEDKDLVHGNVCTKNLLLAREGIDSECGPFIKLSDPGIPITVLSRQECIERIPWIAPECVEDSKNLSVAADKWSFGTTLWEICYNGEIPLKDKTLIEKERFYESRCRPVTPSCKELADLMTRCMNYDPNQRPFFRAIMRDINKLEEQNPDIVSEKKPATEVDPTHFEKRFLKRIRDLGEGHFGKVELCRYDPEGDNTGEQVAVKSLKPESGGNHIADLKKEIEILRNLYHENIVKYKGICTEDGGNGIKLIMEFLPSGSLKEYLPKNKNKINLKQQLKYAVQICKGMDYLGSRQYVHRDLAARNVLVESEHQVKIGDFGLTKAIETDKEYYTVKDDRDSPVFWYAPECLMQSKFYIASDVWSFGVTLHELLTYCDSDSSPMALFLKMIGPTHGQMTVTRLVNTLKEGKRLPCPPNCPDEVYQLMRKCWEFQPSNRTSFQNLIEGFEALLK
Tyrosine-protein kinase JAK2, sequence (O60674 whole entry): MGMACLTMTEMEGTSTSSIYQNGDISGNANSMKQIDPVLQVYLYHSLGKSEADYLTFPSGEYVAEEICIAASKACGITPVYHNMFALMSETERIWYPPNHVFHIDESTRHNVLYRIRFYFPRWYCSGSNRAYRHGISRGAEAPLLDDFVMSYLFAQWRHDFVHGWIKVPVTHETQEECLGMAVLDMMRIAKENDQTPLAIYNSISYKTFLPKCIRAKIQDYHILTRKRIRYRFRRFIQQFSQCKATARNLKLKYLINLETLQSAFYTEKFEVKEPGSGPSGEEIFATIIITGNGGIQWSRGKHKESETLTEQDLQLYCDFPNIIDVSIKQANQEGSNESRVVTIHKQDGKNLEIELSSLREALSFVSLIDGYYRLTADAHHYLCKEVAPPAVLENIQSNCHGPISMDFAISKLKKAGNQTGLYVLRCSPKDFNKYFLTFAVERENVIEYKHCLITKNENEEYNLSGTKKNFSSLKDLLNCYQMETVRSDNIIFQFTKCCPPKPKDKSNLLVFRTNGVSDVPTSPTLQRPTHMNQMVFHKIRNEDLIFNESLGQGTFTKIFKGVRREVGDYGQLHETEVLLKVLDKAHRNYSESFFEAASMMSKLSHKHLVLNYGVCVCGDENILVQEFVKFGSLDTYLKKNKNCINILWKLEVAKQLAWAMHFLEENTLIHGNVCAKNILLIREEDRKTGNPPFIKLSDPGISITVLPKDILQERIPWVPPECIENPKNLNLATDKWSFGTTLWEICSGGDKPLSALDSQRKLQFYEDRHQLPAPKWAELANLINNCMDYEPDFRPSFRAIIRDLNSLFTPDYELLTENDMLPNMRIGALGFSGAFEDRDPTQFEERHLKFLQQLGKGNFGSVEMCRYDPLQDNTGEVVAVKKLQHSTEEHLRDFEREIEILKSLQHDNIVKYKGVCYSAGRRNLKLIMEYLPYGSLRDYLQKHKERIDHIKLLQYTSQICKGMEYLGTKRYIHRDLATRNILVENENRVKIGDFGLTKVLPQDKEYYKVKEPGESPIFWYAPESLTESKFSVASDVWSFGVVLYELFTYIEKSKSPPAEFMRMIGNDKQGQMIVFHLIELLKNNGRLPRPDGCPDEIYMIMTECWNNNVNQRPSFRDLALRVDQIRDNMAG
T2 sequence (Q16539 whole entry): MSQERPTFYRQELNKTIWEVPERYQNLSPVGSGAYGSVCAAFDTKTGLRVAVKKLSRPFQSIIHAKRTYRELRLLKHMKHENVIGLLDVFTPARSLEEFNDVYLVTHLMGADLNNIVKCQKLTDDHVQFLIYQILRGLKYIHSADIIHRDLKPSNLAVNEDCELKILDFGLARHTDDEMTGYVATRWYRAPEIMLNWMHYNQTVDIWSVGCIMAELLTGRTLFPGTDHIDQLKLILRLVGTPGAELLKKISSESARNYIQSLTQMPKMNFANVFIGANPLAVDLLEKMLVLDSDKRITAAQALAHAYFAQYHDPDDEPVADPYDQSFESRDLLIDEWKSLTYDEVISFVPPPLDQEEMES
Casein kinase I isoform delta, sequence (P48730 whole entry, canonical isoform): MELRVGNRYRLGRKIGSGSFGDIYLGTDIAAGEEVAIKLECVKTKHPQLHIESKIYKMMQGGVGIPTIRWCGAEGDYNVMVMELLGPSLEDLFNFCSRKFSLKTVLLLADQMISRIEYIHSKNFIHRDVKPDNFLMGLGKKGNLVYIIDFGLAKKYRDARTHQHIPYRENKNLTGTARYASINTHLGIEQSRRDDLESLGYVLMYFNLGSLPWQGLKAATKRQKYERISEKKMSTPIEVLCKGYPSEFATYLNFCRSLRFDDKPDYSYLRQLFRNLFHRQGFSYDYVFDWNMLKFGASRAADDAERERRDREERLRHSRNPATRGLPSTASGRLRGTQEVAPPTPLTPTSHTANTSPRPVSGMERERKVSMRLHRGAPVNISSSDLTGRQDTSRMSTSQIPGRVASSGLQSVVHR

For `C#Cc1ccc(-c2nc(-c3ccc(F)cc3)c(-c3cc[nH]c(=O)c3)[nH]2)cc1`, the pIC50 in assay [1] is 4.70; in assay [2] it was below 4.00; in assay [3], below 5.00; in assay [4], 5.03; in assay [5], 4.84.
`Cn1c(-c2cn([C@@H]3[C@@H](O)[C@H](O)[C@@H](CO)O[C@H]3O)nn2)nc(-c2ccc(F)cc2)c1-c1ccncc1`: the pIC50 in assay [1] is 6.36; in assay [2], below 4.00; in assay [3], below 4.00; in assay [4] it was 5.99; in assay [5], below 4.00.
For the molecule `Cn1c(-c2cn(CCO)nn2)nc(-c2ccc(F)cc2)c1-c1ccncc1`, the negative logarithm of the IC50 (pIC50) was 6.62 in assay [1]; below 4.00 in assay [2]; below 4.00 in assay [3]; 6.11 in assay [4]; below 4.00 in assay [5].
Turning to `Cn1c(-c2c[nH]nn2)nc(-c2ccc(F)cc2)c1-c1ccncc1`, the negative-log IC50 (pIC50) is 6.69 in assay [1]; below 4.00 in assay [2]; below 4.00 in assay [3]; 6.68 in assay [4]; below 4.00 in assay [5].
As to `CSc1nccc(-c2c(-c3ccc(F)cc3)nc3nc(N)ccn23)n1`, the pIC50 in assay [1] is below 4.00; in assay [2], below 4.00; in assay [3], below 4.00; in assay [4], 6.92; in assay [5], below 4.00.
With `CCOP(=O)(CCn1cc(-c2nc(-c3ccc(F)cc3)c(-c3ccncc3)n2C)nn1)OCC`, the negative logarithm of the IC50 (pIC50) in assay [1] was 5.51; in assay [2], below 4.00; in assay [3] it was below 4.00; in assay [4] it was 5.61; in assay [5] it was below 4.00.
For `CSc1nccc(-c2c(-c3ccc(F)cc3)nc3nc(-c4cn(CC(=O)O)nn4)ccn23)n1`, the negative logarithm of the IC50 (pIC50) in assay [1] is below 4.00; in assay [2], below 4.00; in assay [3], below 4.00; in assay [4], 6.60; in assay [5] it was below 4.00.
On to `Oc1ccc(-c2nc(-c3ccncc3)c(-c3ccc(F)cc3)[nH]2)cc1` [SB-202190], for which the pIC50 in assay [1] was 6.73; in assay [2], below 4.00; in assay [3] it was below 4.00; in assay [5] it was below 4.00.
With `CSc1nccc(-c2[nH]c(-c3ccc(O)cc3)nc2-c2ccc(F)cc2)n1`, the negative logarithm of the IC50 (pIC50) in assay [1] was 5.22; in assay [2], 4.11; in assay [3], below 4.00; in assay [4], 7.02; in assay [5], below 4.00.
`Cn1c(-c2cn(-c3ccc(C(=O)O)cc3)nn2)nc(-c2ccc(F)cc2)c1-c1ccncc1`: the pIC50 in assay [1] was 5.80; in assay [2], below 4.00; in assay [3] it was below 4.00; in assay [4], 6.78; in assay [5], below 4.00.
As to `O=c1cc(-c2[nH]c(C3CCNCC3)nc2-c2ccc(F)cc2)cc[nH]1`, the pIC50 in assay [1] is 4.92; in assay [2], 4.93; in assay [3], 4.77; in assay [4], 5.94; in assay [5], 5.18. Besides, the inhibition entry in assay [6], in assay [7] and in assay [8] was “inactive” throughout.
As for `CCOP(=O)(CCn1cc(-c2ccn3c(-c4ccnc(SC)n4)c(-c4ccc(F)cc4)nc3n2)nn1)OCC`, the pIC50 in assay [1] is 4.67; in assay [2], below 4.00; in assay [3], below 4.00; in assay [4], 4.92; in assay [5], below 4.00.
With `O=c1cc(-c2[nH]c(-c3ccc(O)cc3)nc2-c2ccc(F)cc2)cc[nH]1`, the negative-log IC50 (pIC50) in assay [1] was 4.71; in assay [2], 4.84; in assay [3], 4.26; in assay [4], 5.30; in assay [5], 6.04. Besides, the inhibition entry in assay [6], in assay [7] and in assay [8] was “inactive” throughout.
Turning to `O=c1cc(-c2[nH]c(-c3ccc(-c4nnn[nH]4)cc3)nc2-c2ccc(F)cc2)cc[nH]1`, the negative logarithm of the IC50 (pIC50) in assay [1] is 4.92; in assay [2] it was 6.11; in assay [3] it was 5.77; in assay [4], 5.60; in assay [5], 7.21.
In the same order, the values of `CCOP(=O)(CCn1cc(-c2ccc(-c3nc(-c4ccc(F)cc4)c(-c4cc[nH]c(=O)c4)[nH]3)cc2)nn1)OCC` are 4.35, 4.43, 4.62, below 4.00 and 5.38.
The corresponding values for `C#Cc1ccc(-c2nc(-c3ccc(F)cc3)c(-c3ccnc(SC)n3)[nH]2)cc1` are 4.18, below 4.00, below 4.00, 4.09 and below 4.00.
The corresponding values for `C#Cc1ccn2c(-c3ccnc(SC)n3)c(-c3ccc(F)cc3)nc2n1` are below 4.00, below 4.00, below 4.00, 5.60 and below 4.00.
Consider `Cn1c(-c2cn(CCP(=O)(O)O)nn2)nc(-c2ccc(F)cc2)c1-c1ccncc1`, for which the pIC50 in assay [1] was 6.65; in assay [2] it was below 4.00; in assay [3], below 4.00; in assay [5] it was below 4.00.
As to `O=C(O)c1cc(-c2nc(-c3ccc(F)cc3)c(-c3cc[nH]c(=O)c3)[nH]2)ccc1O`, the pIC50 was 4.67 in assay [1]; 4.67 in assay [2]; below 4.00 in assay [3]; 5.17 in assay [4]; 5.43 in assay [5]. For the same molecule, the inhibition entry in assay [6], in assay [7] and in assay [8] was “inactive” each time.
For `O=c1cc(-c2[nH]c(-c3ccc(-c4cn(CCO)nn4)cc3)nc2-c2ccc(F)cc2)cc[nH]1`, the pIC50 is 4.75 in assay [1]; 4.97 in assay [2]; below 5.00 in assay [3]; 4.73 in assay [4]; 6.30 in assay [5].
In the case of `CSc1nccc(-c2c(-c3ccc(F)cc3)nc3nc(-c4cn(CCP(=O)(O)O)nn4)ccn23)n1`, the negative logarithm of the IC50 (pIC50) in assay [1], in assay [2], in assay [3], in assay [4] and in assay [5] was below 4.00 throughout.
`Cn1c(-c2cn(-c3cccc(C(=O)O)c3)nn2)nc(-c2ccc(F)cc2)c1-c1ccncc1`: the negative logarithm of the IC50 (pIC50) in assay [1] was 7.05; in assay [2], below 4.00; in assay [3], below 4.00; in assay [5] it was below 4.00.
Consider `C[C@H](Nc1nccc(-c2c(-c3ccc(F)cc3)nc3nc(N)ccn23)n1)c1ccccc1`, for which the negative-log IC50 (pIC50) in assay [1] is below 4.00; in assay [2], below 4.00; in assay [3], below 4.00; in assay [4], 8.07; in assay [5], below 4.00.
In the case of `CCOC(=O)Cn1cc(-c2ccc(-c3nc(-c4ccc(F)cc4)c(-c4cc[nH]c(=O)c4)[nH]3)cc2)nn1`, the pIC50 in assay [1] was 4.61; in assay [2] it was 5.52; in assay [3], 4.10; in assay [4] it was 4.48; in assay [5] it was 6.45.
As for `Cn1c(-c2cn([C@H]3CCNC[C@@H]3F)nn2)nc(-c2ccc(F)cc2)c1-c1ccncc1`, the pIC50 in assay [1] was 6.36; in assay [2], below 4.00; in assay [3], below 4.00; in assay [5] it was below 4.00.
Turning to `O=c1cc(-c2[nH]c(-c3ccc(-c4cn(CCP(=O)(O)O)nn4)cc3)nc2-c2ccc(F)cc2)cc[nH]1`, the negative logarithm of the IC50 (pIC50) in assay [1] was 4.97; in assay [2] it was below 4.00; in assay [3] it was below 4.00; in assay [4] it was below 4.00.
